Several values for one entry are separate records, joined by “and”; a condition that tells them apart may be missing. Identical values can stand only once.
Columns and labels:
[1] = Photophysical studies in PBS buffer pH 7.4; assay type: physicochemical; conditions: for E [%] (FRET efficiency): PBS buffer pH 7.4, 20 μM, 298 K; for Ø514 nm [%] (quantum yield): PBS buffer pH 7.4, 298 K, ± 20%, standard H2TPP in toluene (Ø514 nm = 0.11)
Description: (§1) UV-Visible absorption spectra were measured using an Agilent Technologies Cary 60 Spectrophotometer operating with VVinUV software. The sample was held in a quartz cuvette with a path length of 1 cm. Absorption spectra were recorded against a baseline of pure solvent in an optically matched cuvette with a scan rate of 600 nm/min and a data interval of 1.0 nm. Emission and excitation spectra were acquired on an Agilent Technologies Carry Eclipse Fluorescence Spectrophotometer, in quartz cuvettes with a path length of 1 cm. Emission and excitation spectra were collected with a scan rate of 120.0 nm/min, a delay interval of 1.0 nm and band-passes of 5 nm.
Measurements were recorded in aqueous solutions of PBS buffer at pH 7.4 in order to mimic physiological conditions.
(§2) In the examples highlighted above, the sample concentration was […] in PBS buffer and 10 pM in chloroform. All measurements were performed at 298 K.

[2] = Photophysical studies in chloroform; assay type: physicochemical; conditions: 298 K; for E [%] (FRET efficiency) / Emission λmax [nm]: λex = 320 nm; for Ø514 nm [%] (quantum yield): ± 20%, standard H2TPP in toluene (Ø514 nm = 0.11)
Description: as §1, with “5 nm. […]” for “5 nm.”
as §2

[3] = Photophysical studies in PBS buffer pH 7.4; assay type: physicochemical; conditions: PBS buffer pH 7.4, 20 μM, λex = 320 nm, 298 K
HO-1 = target: T1, HO-1 (Homo sapiens, UniProt P09601); experiment: Control experiment: quenching of coumarin 1i fluorescence on addition of HO-1 in E. coli lysates; assay type: biochemical; conditions: λex = 320 nm
T1 construct: made in house; host or cells: E. coli (lysate)
T1 sequence (P09601 1-288): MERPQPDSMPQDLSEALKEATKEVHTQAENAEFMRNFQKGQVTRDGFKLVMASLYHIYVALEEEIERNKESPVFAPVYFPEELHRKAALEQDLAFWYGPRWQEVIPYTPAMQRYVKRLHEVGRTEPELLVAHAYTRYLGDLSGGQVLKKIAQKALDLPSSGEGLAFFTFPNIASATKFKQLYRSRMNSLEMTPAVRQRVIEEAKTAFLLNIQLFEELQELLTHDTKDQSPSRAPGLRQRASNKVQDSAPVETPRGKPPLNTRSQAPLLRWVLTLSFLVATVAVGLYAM

Row | porphyrin emission following Fe2+ complexation ([1]; PBS buffer and chloroform, λex = 320 nm) | E [%] (FRET efficiency) ([1]; λex = 320 nm) | E [%] (FRET efficiency) [2] | Emission λmax [nm] [2] | Emission λmax [nm] [3] | Ø514 nm [%] (quantum yield) [1] | Ø514 nm [%] (quantum yield) [2] | decrease in the emission intensity at 384 nm following addition of HO-1 (HO-1) [fold] | Compound
1 | completely quenched | 99.2 | 98.7 | 385^[a], [b] nm | 387 ^[b], [c] nm | – | – | – | Iron(11) dimethyl 3,3′-(3,7,8,12,13,17-hexamethyl-10-(4-(2-((4-methyl-2-oxo-2H-chromen-7-yl)oxy)ethoxy) phenyl)porp-hyrin-2,18-diyl)dipropionate [Compound 1h]
2 | – | 96.8 | 96.6 | 379 nm and 654 nm and 719 nm | 383 nm | 2.0 | 17.4 | – | Cc1cc(=O)oc2cc(OCCOc3ccc(-c4c5nc(c(-c6ccccc6)c6ccc([nH]6)c(-c6ccccc6)c6nc(c(-c7ccccc7)c7ccc4[nH]7)C=C6)C=C5)cc3)ccc12 [Compound C3g, reference compound]
3 | – | – | – | 381 nm | 384 nm | – | – | 2.3 | Cc1cc(=O)oc2cc(OCCOc3ccc(C(=O)O)cc3)ccc12 [Compound 1i, 4-(2-((4-Methyl-2-oxo-2H-chromen-7-yl)oxy)ethoxy)benzoic acid]

The next lines start with the compound.

Row | Compound | porphyrin emission following Fe2+ complexation ([1]; PBS buffer and chloroform, λex = 320 nm) | E [%] (FRET efficiency) ([1]; λex = 320 nm) | E [%] (FRET efficiency) [2] | Emission λmax [nm] [2] | Emission λmax [nm] [3] | Ø514 nm [%] (quantum yield) [1] | Ø514 nm [%] (quantum yield) [2] | decrease in the emission intensity at 384 nm following addition of HO-1 (HO-1) [fold]
4 | Cc1cc(=O)oc2cc(OCCBr)ccc12 [Compound 1f] | – | – | – | 382 nm | 384 nm and 383 ^[b] nm | – | – | –
5 | COC(=O)CCC1=C(C)c2cc3[nH]c(c(C)c3C)c(-c3ccc(OCCOc4ccc5c(C)cc(=O)oc5c4)cc3)c3nc(cc4[nH]c(cc1n2)c(CCC(=O)OC)c4C)C(C)=C3C [Compound 1g] | – | 95.1 | 99.7 | 385 nm and 629 nm and 695 nm | 387 nm | 0.5 | 5.2 | –
